For test [1], the target named is T1, complex I (Homo sapiens, UniProt P19404+P28331+P49821). Put plainly: Complex I driven respiration in SH-SY5Y cells. The note with it: for % Inhibition - complex I: 5 × 1O^−5 M; for % Inhibition - complex I / inhibition at 100 µM: means ± SD of 4-6 detections; for inhibition at 100 µM: 10^−4 M. Type of test: cell-based. Details: endogenous in cells; host or cells: SH-SY5Y. The text has this: (§1) The effect of antipsychotic drugs on respiration in SH-SY5Y cells was studied.
T1 sequence (P49821 21-464): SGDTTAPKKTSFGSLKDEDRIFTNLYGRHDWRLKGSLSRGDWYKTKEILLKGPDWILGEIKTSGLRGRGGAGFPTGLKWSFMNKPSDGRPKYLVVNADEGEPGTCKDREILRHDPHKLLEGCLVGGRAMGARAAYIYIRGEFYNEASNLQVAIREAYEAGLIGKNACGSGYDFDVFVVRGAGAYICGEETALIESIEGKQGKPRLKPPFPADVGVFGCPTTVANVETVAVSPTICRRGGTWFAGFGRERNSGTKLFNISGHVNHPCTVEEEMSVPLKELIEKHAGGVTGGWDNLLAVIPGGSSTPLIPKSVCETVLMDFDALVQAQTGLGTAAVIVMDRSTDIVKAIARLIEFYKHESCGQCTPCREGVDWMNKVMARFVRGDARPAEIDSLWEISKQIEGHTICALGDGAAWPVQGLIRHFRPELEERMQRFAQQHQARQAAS
T1 sequence (P19404 33-249): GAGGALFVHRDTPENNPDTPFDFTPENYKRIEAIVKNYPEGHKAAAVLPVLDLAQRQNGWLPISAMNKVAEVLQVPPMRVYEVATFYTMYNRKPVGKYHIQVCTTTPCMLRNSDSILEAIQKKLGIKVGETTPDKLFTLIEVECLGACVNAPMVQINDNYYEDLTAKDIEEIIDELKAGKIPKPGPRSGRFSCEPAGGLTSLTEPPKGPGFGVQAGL
T1 sequence (P28331 24-727): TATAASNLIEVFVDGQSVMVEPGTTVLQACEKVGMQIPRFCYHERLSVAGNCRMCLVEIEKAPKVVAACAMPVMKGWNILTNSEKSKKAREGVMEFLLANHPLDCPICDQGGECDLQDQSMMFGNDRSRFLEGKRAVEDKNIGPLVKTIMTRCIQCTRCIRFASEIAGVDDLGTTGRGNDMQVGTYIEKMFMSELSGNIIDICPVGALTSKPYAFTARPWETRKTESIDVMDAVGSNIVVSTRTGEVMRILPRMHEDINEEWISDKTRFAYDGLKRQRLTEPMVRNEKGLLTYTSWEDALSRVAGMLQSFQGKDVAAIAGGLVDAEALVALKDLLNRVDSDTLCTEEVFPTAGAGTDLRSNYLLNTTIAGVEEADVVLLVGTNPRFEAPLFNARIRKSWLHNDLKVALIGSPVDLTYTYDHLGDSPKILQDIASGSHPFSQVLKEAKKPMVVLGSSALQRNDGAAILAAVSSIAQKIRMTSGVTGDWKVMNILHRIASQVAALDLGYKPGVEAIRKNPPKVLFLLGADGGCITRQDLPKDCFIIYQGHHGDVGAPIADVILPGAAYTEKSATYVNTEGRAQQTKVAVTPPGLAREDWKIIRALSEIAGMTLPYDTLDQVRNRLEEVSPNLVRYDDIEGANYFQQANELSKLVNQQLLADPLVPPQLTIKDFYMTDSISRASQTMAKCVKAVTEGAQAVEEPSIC

The target of test [2] is T2, complex II (Homo sapiens, UniProt O14521+P21912+P31040+Q99643). Put plainly: Complex II driven respiration in SH-SY5Y cells. Type of test: cell-based. The arrangement: endogenous in cells; host or cells: SH-SY5Y. The note with it: for inhibition at 50 µM: 5 × 10^−5 M; for inhibition at 50 µM / inhibition at 100 µM: means ± SD of 4-6 detections; for inhibition at 100 µM: 10^−4 M.
T2 sequence (P31040 43-664): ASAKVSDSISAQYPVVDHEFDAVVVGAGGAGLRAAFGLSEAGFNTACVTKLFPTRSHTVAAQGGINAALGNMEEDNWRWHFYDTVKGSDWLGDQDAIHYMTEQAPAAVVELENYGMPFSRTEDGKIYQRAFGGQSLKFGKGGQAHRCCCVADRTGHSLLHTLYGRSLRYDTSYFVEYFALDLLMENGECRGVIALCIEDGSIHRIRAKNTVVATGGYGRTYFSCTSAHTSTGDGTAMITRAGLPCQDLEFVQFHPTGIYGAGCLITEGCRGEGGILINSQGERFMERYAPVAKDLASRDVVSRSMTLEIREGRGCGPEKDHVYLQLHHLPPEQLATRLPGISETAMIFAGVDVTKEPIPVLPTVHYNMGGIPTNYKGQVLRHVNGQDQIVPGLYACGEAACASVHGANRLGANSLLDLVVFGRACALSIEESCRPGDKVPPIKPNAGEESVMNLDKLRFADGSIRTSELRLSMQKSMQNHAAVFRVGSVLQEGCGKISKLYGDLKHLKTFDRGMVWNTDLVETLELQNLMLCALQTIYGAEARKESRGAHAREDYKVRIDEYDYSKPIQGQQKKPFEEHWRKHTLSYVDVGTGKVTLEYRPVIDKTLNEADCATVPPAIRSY
T2 sequence (P21912 29-280): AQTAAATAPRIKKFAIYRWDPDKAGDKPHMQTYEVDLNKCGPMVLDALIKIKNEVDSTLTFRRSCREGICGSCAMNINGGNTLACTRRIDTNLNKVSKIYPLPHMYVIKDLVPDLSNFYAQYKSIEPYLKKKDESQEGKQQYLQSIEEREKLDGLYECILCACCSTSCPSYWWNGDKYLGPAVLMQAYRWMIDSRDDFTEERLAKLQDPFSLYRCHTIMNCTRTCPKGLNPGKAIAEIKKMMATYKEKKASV
T2 sequence (Q99643 30-169): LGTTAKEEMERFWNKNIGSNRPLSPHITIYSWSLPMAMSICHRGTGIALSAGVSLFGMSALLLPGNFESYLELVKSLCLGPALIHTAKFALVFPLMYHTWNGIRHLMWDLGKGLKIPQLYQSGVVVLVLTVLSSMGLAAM
T2 sequence (O14521 57-159): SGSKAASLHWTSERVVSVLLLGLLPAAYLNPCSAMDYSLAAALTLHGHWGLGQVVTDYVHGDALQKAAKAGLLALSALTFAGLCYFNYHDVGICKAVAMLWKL
Excerpt: as §1

Test [3] concerns the target T3, mitochondrial complex I (NADH ferricyanide reductase) (Homo sapiens, UniProt P19404+P28331+P49821).
T3 construct: an enriched mitochondrial fraction was isolated on percoll as described previously; from tissue; host or cells: mitochondria-enriched fraction of blood platelets, disrupted by freeze-thaw or digitonin
Put plainly: Dopamine inhibition of NADH-ferricyanide reductase (complex I) activity in platelet mitochondria. The note with it: platelet mitochondrial preparation. Type of test: biochemical.
Experimental: NADH ferricyanide reductase activity was determined at Vmax ferricyanide throughout the study with or without antimycin A (Singer, 1974). […] The reaction was started by the addition of 0.1 mM potassium ferricyanide and 0.14 mM NADH with and without 10 μg antimycin A. The decrease in NADH absorbance was followed at 340 nm for 1 min with a 3 sec interval between successive readings and 1 sec initial delay.

Test [4] concerns the target T4, NADH CoQ reductase (complex I) (Homo sapiens, UniProt P19404+P28331+P49821).
T4 construct: an enriched mitochondrial fraction was isolated on percoll as described previously; from tissue; host or cells: mitochondria-enriched fraction of blood platelets, disrupted by freeze-thaw or digitonin
Put plainly: NADH-CoQ reductase activity in platelet mitochondria. Type of test: biochemical. The settings on record: 10 μM rotenone; read-out: Residual activity of NADH CoQ reductase in the presence of rotenone. As to the method:
Blood (40-80 ml) was collected from the cubital vein without tourniquet between 8:00 and 10:00 a.m., mixed 9:1 with 3.8% (w/v) tri-sodium citrate, and platelet-rich plasma (PRP) separated at room temperature by centrifugation at 200×g for 20 min. Platelets were isolated and washed with Tyrode's buffer pH 7.4 containing 1 mM EDTA as described previously (Krige et al., 1992). The platelet pellet was gently resuspended in ice cold 10 mM Tris buffer pH 7.4 containing 250 mM sucrose and 1 mM EDTA and disrupted by a Dounce A homogenizer (20-30 strokes). The breakdown of the platelets was verified by light microscopy. The homogenate was centrifuged at 1000×g at 4° C. for 20 min to remove unbroken cells. The supernatant, containing the cytoplasmic extract was centrifuged at 12,000×g at 4° C. For 15 min and an enriched mitochondrial fraction was isolated on percoll as described previously (Ben-Shachar et al., 1995; Gavin et al., 1990; McComark and Denton, 1989). […] The final preparation was immediately stored at −70° C. until use.
Mitochondrial respiratory chain enzymes activity was assayed blindly and in triplicate after two cycles of freezing and thawing in a final volume of 1 ml at 25° C. by standard techniques. […]
Results from both assays for each sample are expressed as the difference between reductases activities in the absence and the presence of the relevant inhibitors.

The target in test [5] is T1, complex I. The settings on record: permeabilized cells, 37° C., 10 minutes of incubation; means±SD of 3 experiments. On the procedure:
(§2) Respiration rate was determined polarographically using a thermostatically controlled (37° C.) Clark oxygen electrode after 10 minutes of incubation. Respiration rates for each enzyme of the respiratory chain were assessed after the permeabilization of cellular membrane, with 0.001% digitonin followed by the addition of the following substrates and inhibitors: […] plus malate for complex I induced respiration; succinate, in the presence of rotenone and ATP for complex II induced respiration, and glycerol-3-phosphate, in the presence of rotenone. […] Results are means±SD of 3 experiments.

The target of test [6] is T2, complex II. The note with it: succinate in the presence of rotenone and ATP. On the procedure:
as §2

For the next test, the target named is complex III (Homo sapiens, UniProt P00156+P08574+P47985). The note with it: glycerol-3-phosphate in the presence of rotenone, ATP and malonate. As to the method:
as §2

For test [7], the system named is EBV transformed lymphocytes. As to the method: Lymphocytes were isolated on Ficol and were centrifugated at 270 g for 10 minutes, the cell pellet was infected with 1 ml EBV at 37° C. for 1 h. The sample was then centrifuged at 270 g for 10 minutes to remove the EBV. The infected lymphocytes were-suspended in 5 ml of RPMI 1640 with 20% (v/v) FBS and 1% phytohemagglutinin (PHA) and incubated in a culture flask with culture medium replaced twice a week. Immortalized lymphocytes were then cryopreserved until use in liquid nitrogen.
Respiration was measured polarographically using a thermostatically controlled (37° C.) Clark oxygen electrode after 10 minutes of incubation. The respiration rates were assessed after the permeabilization of cellular membrane with 0.001% digitonin and the addition of glutamate+malate

This note sets out measurements from patent US8420308B2, “Methods and kits for diagnosis of schizophrenia” (Technion R&D Foundation Ltd., priority 2000, dated 2013).

Like-named read-outs stand apart in the source and are kept apart here.

As usually defined, the inhibition is the drop in the measured response relative to a control, in per cent. Low values mean a weak effect, high ones a strong effect.

T4 sequence (P28331 24-727): as the sequence (P28331 24-727) above
T4 sequence (P49821 21-464): as the sequence (P49821 21-464) above
T4 sequence (P19404 33-249): as the sequence (P19404 33-249) above
T3 sequence (P49821 21-464): as the sequence (P49821 21-464) above
T3 sequence (P19404 33-249): as the sequence (P19404 33-249) above
T3 sequence (P28331 24-727): as the sequence (P28331 24-727) above

Turning to `CN1CCN(C2=Nc3cc(Cl)ccc3Nc3ccccc32)CC1` [Clozapine], on complex I [1], the “% Inhibition - complex I” value stood at 31.2 ± 5.6 % and the inhibition at 100 µM worked out at 39.9 ± 20.8%. Besides, at complex II [2], the inhibition at 50 µM is 10.9 ± 1.6% and the inhibition at 100 µM was 2.6 ± 2.4%.
For `C=C(C)[C@H]1Cc2c(ccc3c2O[C@@H]2COc4cc(OC)c(OC)cc4[C@@H]2C3=O)O1` [rotenone], the “Effect on NADH ferricyanide reductase activity” value in test [3] is “no effect”. In addition, the remaining activity at 10 µM in test [4] fell in the range of 5 to 15%.
For `O=C(CCCN1CCC(O)(c2ccc(Cl)cc2)CC1)c1ccc(F)cc1` [Haloperidol], at complex I [1], the “Effect on complex I driven mitochondrial respiration (in words)” value was “specifically inhibit complex I driven mitochondrial respiration”, the “% Inhibition - complex I” value is 27.2 ± 4.7 % and at 100 µM the inhibition was 47.6 ± 10%. On complex II [2], the “Effect on respiration through complex II (in words)” value was “no effect”, the inhibition at 50 µM came to 0.7 ± 0.7% and 100 µM produced 2.9 ± 1.8% inhibition.
For `CN(C)CCCN1c2ccccc2CCc2ccc(Cl)cc21` [Anafranil], at complex I [1], the “% Inhibition - complex I” value is on record as 13.0 ± 11.0% and the inhibition at 100 µM came out at 32.1 ± 8.8%. Moreover, at complex II [2], the inhibition at 50 µM is 11 ± 1.2% and testing at 100 µM gave an inhibition of 22.1 ± 18%.
For `NCCc1ccc(O)c(O)c1` [Dopamine], the “Inhibition of respiration through complex I” value at complex I [5] was 33.3±0.07%. At complex II [6], the “Inhibition of respiration through complex II” value is on record as “not through complex II”. Besides, the “Inhibition of respiration through complex III” value at complex III was “not through complex II and III”. Moreover, in test [7] (EBV transformed lymphocytes), the “Inhibition by DA in schizophrenic patients relative to control subjects” value is given as “higher by two fold”. The “Inhibition of respiration by DA” value in test [7] (lymphoblasts of control subjects (n=7)) is recorded as 11.4±7.2%; in test [7] (lymphoblasts of schizophrenic patients (n=7)), 26.8±8.6%.
`CNCCC(Oc1ccc(C(F)(F)F)cc1)c1ccccc1` (centres unmarked) [Fluoxetine]: on complex I [1], the “% Inhibition - complex I” value is listed as 15.7 ± 25.5% and at 100 µM the inhibition was 29.2 ± 22.7%. At complex II [2], this molecule displayed an inhibition at 50 µM of 15 ± 9.2% and an inhibition at 100 µM of 25.3 ± 0.2%.
Regarding `CN(C)CCCN1c2ccccc2Sc2ccc(Cl)cc21` [Chlorpromazine], at complex I [1], the “Effect on complex I driven mitochondrial respiration (in words)” value is “specifically inhibit complex I driven mitochondrial respiration”, the “% Inhibition - complex I” value came to 20.9 ± 18.1 % and the inhibition at 100 µM stood at 43.8 ± 17.3%. On complex II [2], the “Effect on respiration through complex II (in words)” value is “no effect”, the inhibition at 50 µM stood at 6.6 ± 3.5% and the inhibition at 100 µM came to 14.9 ± 2.1%.
